Patent US20160185797A1, “ALKYNYL ALCOHOLS AND METHODS OF USE” (Genentech, Inc., priority 2013, published 2016)

Columns and labels:
[1] = tested on: p52 (NF-kB2) nuclear translocation in HeLa cells; assay: p52 (NF-kB2) nuclear translocation assay in HeLa cells, anti-lymphotoxin beta receptor antibody stimulated (non-classical NF-kB signaling), high content imaging; format: cell-based; conditions: Homo sapiens, 100 ng/mL anti-lymphotoxin beta receptor antibody for 5 hours, read-out: p52 HeLa Transloc Assay (IC50)
How it was run: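 HeLa cells in 10% FBS medium were treated with compound (0.2% DMSO final) and stimulated with 100 ng/mL anti-lymphotoxin beta receptor antibody for 5 h. Fixed cells were immunostained for p52 and imaged with DRAQ5 nuclear stain. Translocation is the nuclear to cytoplasmic intensity ratio, […].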

[2] = target: T1, nuclear factor-kappa B (NF-kB)-inducing kinase (NIK) (Homo sapiens, UniProt Q99558); assay: NIK enzyme inhibition assay (Transcreener ADP fluorescence polarization, NIK ADP-FP); format: biochemical
T1 construct: made in house; host or cells: baculovirus-infected insect cells
Protocol: NIK Enzyme Inhibition Assay:
The ability of the nuclear factor-kappa B (NF-kB)-inducing kinase (NIK) to catalyze the hydrolysis of adenosine-5′-triphosphate (ATP) was monitored using the Transcreener ADP (adenosine-5′-diphosphate) assay (BellBrook Labs). […] Reactions were quenched by the addition of 20 mM 2,2′,2″,2′″-(ethane-1,2-diyldinitrilo)tetraacetic acid and 0.01% Brij 35. The tracer bound to the antibody was displaced by the ADP generated during the NIK reaction, which causes a decrease in fluorescence polarization that was measured by laser excitation at 633 nm with a Fluorescence Correlation Spectroscopy Plus reader (Evotec AG). Equilibrium dissociation constant (Ki) values for NIK inhibitors are calculated from plots of activity vs. inhibitor concentration using Morrison's quadratic equation that accounts for the potential of tight binding, and by also applying the conversion factor that accounted for competitive inhibition and the concentration of substrate used in the assay relative to its Michaelis constant (Km).

[3] = tested on: REL-A (p65) nuclear translocation in HeLa cells; assay: REL-A (p65) nuclear translocation assay in HeLa cells, TNF-α stimulated (classical NF-kB signaling), high content imaging; format: cell-based; conditions: Homo sapiens, HeLa, compound 4.5 h, then 10 ng/mL TNF-α for 30 minutes, read-out: REL-A HeLa Transloc Assay (IC50)
How it was run: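 HeLa cells in medium with 10% fetal bovine serum were exposed to compounds (0.2% DMSO final) for 4.5 hours, then stimulated with 10 ng/mL TNF-α for 30 minutes. After fixation in 4% paraformaldehyde and permeabilization with 0.1% Triton X-100, cells were stained with 400 ng/mL anti-REL-A (p65) antibody, an Alexa488 secondary and DRAQ5. Opera imaging quantified the nuclear-to-cytoplasmic signal ratio to give IC50.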

T1 sequence (Q99558 whole entry): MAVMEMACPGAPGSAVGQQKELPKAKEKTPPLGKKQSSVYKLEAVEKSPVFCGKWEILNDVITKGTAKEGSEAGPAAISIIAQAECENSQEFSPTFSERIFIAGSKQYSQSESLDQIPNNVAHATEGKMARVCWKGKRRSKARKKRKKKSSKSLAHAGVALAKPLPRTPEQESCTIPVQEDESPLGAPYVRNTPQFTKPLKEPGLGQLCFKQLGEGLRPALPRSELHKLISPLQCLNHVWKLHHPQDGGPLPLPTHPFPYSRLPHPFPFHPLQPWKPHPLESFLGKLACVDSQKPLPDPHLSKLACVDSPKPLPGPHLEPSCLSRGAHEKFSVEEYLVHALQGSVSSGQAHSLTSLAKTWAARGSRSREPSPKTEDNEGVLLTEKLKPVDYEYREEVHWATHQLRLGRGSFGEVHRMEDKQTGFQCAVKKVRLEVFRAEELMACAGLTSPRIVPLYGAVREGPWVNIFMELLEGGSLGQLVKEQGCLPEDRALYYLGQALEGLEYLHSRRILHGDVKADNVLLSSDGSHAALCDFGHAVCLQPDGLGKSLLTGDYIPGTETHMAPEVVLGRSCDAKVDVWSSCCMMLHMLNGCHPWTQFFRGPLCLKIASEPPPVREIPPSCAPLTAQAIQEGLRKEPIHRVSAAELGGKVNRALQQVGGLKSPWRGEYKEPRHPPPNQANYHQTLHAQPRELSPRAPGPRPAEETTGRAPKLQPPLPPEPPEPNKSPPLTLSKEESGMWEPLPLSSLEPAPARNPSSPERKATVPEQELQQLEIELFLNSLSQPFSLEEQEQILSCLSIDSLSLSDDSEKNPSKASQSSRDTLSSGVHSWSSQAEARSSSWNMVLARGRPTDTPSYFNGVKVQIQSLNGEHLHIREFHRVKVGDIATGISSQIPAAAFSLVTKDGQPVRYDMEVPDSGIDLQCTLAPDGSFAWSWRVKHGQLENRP

Compound	IC50 [1]	Ki [2]	IC50 [3]
CN1CC[C@@](O)(C#Cc2cccc(-c3ncc(NCC4(C)COC4)c(C(N)=O)n3)c2)C1=O [Example 105, 2-[3-[2-[(3R)-3-hydroxy-1-methyl-2-oxo-pyrrolidin-3-yl]ethynyl]phenyl]-5-[(3-methyloxetan-3-yl)methylamino]pyrimidine-4-carboxamide]	73.3 nM	0.35 nM	≥ 2000 nM
CN1CC[C@@](O)(C#Cc2cccc(-c3nc(OC4COC4)c(N)c(C(N)=O)n3)c2)C1=O [Example 106, 5-amino-2-[3-[2-[(3R)-3-hydroxy-1-methyl-2-oxo-pyrrolidin-3-yl]ethynyl]phenyl]-6-(oxetan-3-yloxy)pyrimidine-4-carboxamide]	70 nM	0.25 nM	≥ 2000 nM
CN1CC[C@@](O)(C#Cc2cccc(-c3nc(OC4CCOCC4)c(N)c(C(N)=O)n3)c2)C1=O [Example 107, 5-amino-2-[3-[2-[(3R)-3-hydroxy-1-methyl-2-oxo-pyrrolidin-3-yl]ethynyl]phenyl]-6-tetrahydropyran-4-yloxy-pyrimidine-4-carboxamide]	269 nM	0.4 nM	≥ 2000 nM
COCCOc1nc(-c2cccc(C#C[C@]3(O)CCN(C)C3=O)c2)nc(C(N)=O)c1N [Example 108, 5-amino-2-[3-[2-[(3R)-3-hydroxy-1-methyl-2-oxo-pyrrolidin-3-yl]ethynyl]phenyl]-6-(2-methoxyethoxy)pyrimidine-4-carboxamide]	213 nM	0.65 nM	≥ 2000 nM
COCCNc1cnc(-c2cc(C#C[C@]3(O)CCN(C)C3=O)ccc2F)nc1C(N)=O [Example 109, 2-[2-fluoro-5-[2-[(3R)-3-hydroxy-1-methyl-2-oxo-pyrrolidin-3-yl]ethynyl]phenyl]-5-(2-methoxyethylamino) pyrimidine-4-carboxamide]	83.1 nM	0.28 nM	≥ 2000 nM
CN1CC[C@@](O)(C#Cc2ccc(F)c(-c3ncc(N)c(C(N)=O)n3)c2)C1=O [Example 110, 5-amino-2-[2-fluoro-5-[2-[(3R)-3-hydroxy-1-methyl-2-oxo-pyrrolidin-3-yl]ethynyl]phenyl]pyrimidine-4-carboxamide]	84.3 nM	0.14 nM	≥ 2000 nM
Cc1ccnn1-c1cc(C(N)=O)nc(-c2ccc(F)c(C#C[C@]3(O)CCN(C)C3=O)c2)n1 [Example 111, 2-[4-fluoro-3-[2-[(3R)-3-hydroxy-1-methyl-2-oxo-pyrrolidin-3-yl]ethynyl]phenyl]-6-(5-methylpyrazol-1-yl)pyrimidine-4-carboxamide]	75.8 nM	0.37 nM	≥ 2000 nM
CN1CC[C@@](O)(C#Cc2cccc(-c3nc(C(N)=O)c(N)n4ccnc34)c2)C1=O [Example 112, 5-amino-8-[3-[2-[(3R)-3-hydroxy-1-methyl-2-oxo-pyrrolidin-3-yl]ethynyl]phenyl]imidazo[1,2-a] pyrazine-6-carboxamide]	88.8 nM	0.05 nM	≥ 20000 nM
CN1CC[C@@](O)(C#Cc2cccc(-c3nc(C(N)=O)cn4c(C(F)(F)F)cnc34)c2)C1=O [Example 113, 8-[3-[2-[(3R)-3-hydroxy-1-methyl-2-oxo-pyrrolidin-3-yl]ethynyl]phenyl]-3-(trifluoromethyl)imidazo [1,2-a]pyrazine-6-carboxamide]	212 nM	2.12 nM	≥ 2000 nM
CCn1ncc2c(-c3cccc(C#C[C@]4(O)CCN(C)C4=O)c3)nc(C(N)=O)cc21 [Example 114, 1-ethyl-4-[3-[2-[(3R)-3-hydroxy-1-methyl-2-oxo-pyrrolidin-3-yl]ethynyl]phenyl]pyrazolo[4,3-c] pyridine-6-carboxamide]	211 nM	1.48 nM	≥ 2000 nM
CN1CC[C@@](O)(C#Cc2cc(-c3nc(C(N)=O)c(N)cc3F)ccc2F)C1=O [Example 116, 3-amino-5-fluoro-6-[4-fluoro-3-[2-[(3R)-3-hydroxy-1-methyl-2-oxo-pyrrolidin-3-yl]ethynyl]phenyl]pyridine-2-carboxamide]	11.6 nM	0.05 nM	12400 nM
